Assay results reported in US4882359A, “Azacycloalkane derivatives, absorption promoters containing the derivatives as the effective ingredient and external preparations containing the absorption promoters” (priority 1986, dated 1989).

Key:
[1] = Percutaneous absorption of pindolol in rats, serum concentration by HPLC; format: in vivo, Wistar-strain male rats; settings: for Activity (serum concentration of pindolol): relative to Control (Vehicle) = 1.0 of the same series in Table 5
Procedure: There were provided groups each consisting of four Wistar-strain male rats each weighing 200 to 250 g and having their dorsal skin hair shorn with an electric shaver.
Each of the test solutions (pindolol-containing preparations) was applied to the shorn dorsal skin of test rats of one of the groups in an amount of 150 μl/2.5×2.5 cm^2 and then sealed up. Three hours after the application of the test solution, the blood of the test rats was collected and measured for serum concentration of pindolol by HPLC.
For comparison, the above procedure was followed except that there was used a control solution which was the same as said test solution except for non-use of any compounds of this invention, and also followed using a comparative test solution which was the same as the test solution except for the substitution of a comparative compound for the compound of this invention.

[2] = tested on: dorsal skin of Japanese-native rabbits; test: Primary skin irritation test (Draize's method); format: in vivo; design: key to Average irritation score, 24 hours / Average irritation score, 48 hours / Average irritation score, 72 hours: Draize points: 0-2 mild, 2-6 moderate, 6-8 severe irritation; settings: for Average irritation score, 24 hours: 3% solution in polyethylene glycol 300, 24 hours after removal of plaster; for Average irritation score, 48 hours: 3% solution in polyethylene glycol 300, 48 hours after removal of plaster; for Average irritation score, 72 hours: 3% solution in polyethylene glycol 300, 72 hours after removal of plaster; for Overall evaluation (skin irritation): graded from irritation scores at 24, 48 and 72 hours
Procedure: As one of tests on the compounds of this invention for their topical toxicity, a primary skin irritation test was made on skins using rabbits as the subjects. More particularly, an adhesive plaster for use in batch tests, to which 100 μl of a 3% test solution of each of the compounds of Examples 12, 37, 57 and 73 of this invention in 100 ml of polyethylene glycol 300 had dropwise been applied, was applied to the hair-shorn dorsal skin of three Japanese-native rabbits weighing 2.5 to 3.0 kg each and then sealed up on the dorsal skin for 24 hours. The rabbits were evaluated three times for their dorsal skin irritative reaction 24, 48 and 72 hours after removal of the plaster by using a method in accordance with the Draize's method.
The results are as shown in Table 18 in which the overall evaluation is represented by the following equation. [formula] and is graded into mild irritation (0-2 points), moderate irritation (2-6 points) and severe irritation (6-8 points).

in vivo = settings: rat
[3] = relative to Control (Vehicle) = 1.0
Procedure: There were investigated the effects of the compound of this invention on the percutneous penetration of phenol red which is difficult to be penetrated using the dorsal skin of female hairless mice (each 9 weeks old) by a diffusion cell method which comprised adding 0.5 ml of a sodium chloride injection containing 2 mM of phenol red to the donor side and measuring the amount of phenol red permeated into the receptor layer by high-pace optimal densitometric meter (559 nm).

[4] = Skin penetration of 5-FU from test solution, diffusion cell method; format: in vitro ADME, female hairless mice; settings: for Cumulative amount of 5-FU permeated, 24 hrs later / Cumulative amount of 5-FU permeated, 48 hrs later: 3.0 wt.% test compound, 5-FU 1.8 wt.% in ethanol/water; for Activity (5-FU permeation): relative to Control (Vehicle) = 1.0
[5] = Skin penetration of pindolol from test solution, diffusion cell method; format: in vitro ADME, female hairless mice; settings: for Activity (pindolol permeation): test solution, relative to Control (Vehicle) = 1.0
glucose level in blood [6] = test: Rectal absorption of insulin from suppository: glucose level in blood of rabbits; format: in vivo, male rabbits
Procedure: There were prepared the following suppositories for use in normal, control and test groups, respectively, each group consisting of five male rabbits weighing 2.5 to 3.5 kg each.
The three suppositories were into the rectums of the rabbit groups in an amount of 0.3 g suppository/kg, respectively. Thereafter, blood was collected from the rabbits through their ear vein three times with the lapse of time to measure the three collected blood samples for glucose level in blood by a glucose oxidase method. […] The results are indicated in terms of a change in glucose level in blood with respect to the glucose level in blood prior to the administration of the suppositories.

glucose level in blood [7] = test: Percutaneous absorption of glibenclamide: glucose level in blood of glucose-loaded rats; format: in vivo, Wistar-strain male rats
Procedure: There were prepared control and test solutions having the following respective formulations (Table 8): […]
In the tests, there were used groups each consisting of four Wistar-strain male rats which weighed about 200 to 250 g and abstained from food for 24 hours.
Each of the control solutions A and B and the test solution indicated in the above Table 8 was applied to the dorsal skins, shorn by an electric clipper or shaver, of the rats of one group in an amount of 175 μl/2.5×2.5 cm^2 and then sealed up. Three hours after sealing up, 1.5 ml of 20% glucose was subcutaneously injected into said rats. Two hours after the glucose injection, the blood of the rats was collected and measured for glucose level in blood.
For comparison, the above procedure was followed except that azone was substituted for the compound of Example 12 in the test solution.
For further comparison, the blood of rats of one group which had been subjected only to 24 hours' abstinence from food (this group being hereinafter referred to as "normal group"), was measured for glucose level in blood. The rat groups to which the control solution A, the control solution B and the test solution were applied, are hereinafter referred to as "control group A", "control group B" and "test group", respectively.

CCCCCCCCOCCCCN1CCCCCC1=O [Example 74]
Activity (serum concentration of pindolol) [1]: 28.9

CCCCCCOCCCCCCN1CCCCCC1=O [Example 80]
Activity (serum concentration of pindolol) [1]: 26.1

CCCCCCCCCCOCCCN1CCCCCC1=O [Example 72]
Activity (serum concentration of pindolol) [1]: 27.2

CCCCCOCCCCCCN1CCCC1=O [Example 67]
Activity (serum concentration of pindolol) [1]: 22.8

CCCCCCCCSCCCCN1CCCCCC1=O [Example 38]
Activity (serum concentration of pindolol) [1]: 12.0

CCCCCCCSCCCCN1CCCCCC1=O [Example 37]
Average irritation score, 24 hours [2]: 0.6 ± 2
Average irritation score, 48 hours [2]: 0.5 ± 0.5
Average irritation score, 72 hours [2]: 0.5 ± 0.5
Overall evaluation (skin irritation) [2]: Mild (mild irritation (0-2 points))
LD50 at 168 h (in vivo; po): > 5000 mg/kg
LD50 at 168 h (in vivo; sc): > 5000 mg/kg
Activity (serum concentration of pindolol) [1]: 16.2
Activity (phenol red permeation) [3]: 54.2

CCCCCCCCSCCCN1CCCCCC1=O [Example 30]
Activity (serum concentration of pindolol) [1]: 12.7

CCCCCCCOCCCCN1CCCCCC1=O [Example 73]
Average irritation score, 24 hours [2]: 0.3 ± 0.3
Average irritation score, 48 hours [2]: 0.3 ± 0.3
Average irritation score, 72 hours [2]: 0.5 ± 0.5
Overall evaluation (skin irritation) [2]: Mild (mild irritation (0-2 points))
LD50 at 168 h (in vivo; po): > 5000 mg/kg
LD50 at 168 h (in vivo; sc): > 5000 mg/kg
Activity (serum concentration of pindolol) [1]: 34.1
Activity (phenol red permeation) [3]: 56.3

CCCSCCCCCCCCN1CCCCCC1=O [Example 50]
Activity (serum concentration of pindolol) [1]: 6.6

CCCCCCSCCCCCCN1CCCCCC1=O [Example 48]
Activity (serum concentration of pindolol) [1]: 14.9

CN1CCCC1=O [1-methyl-2-pyrolidone, 1-methyl-2-pyrrolidone, reference compound]
LD50 at 168 h (in vivo; po): 1000 to 2000 mg/kg
LD50 at 168 h (in vivo; sc): 2000 to 5000 mg/kg
Activity (serum concentration of pindolol) [1]: 1.9
Cumulative amount of 5-FU permeated, 24 hrs later [4]: 83 ± 15 µM
Cumulative amount of 5-FU permeated, 48 hrs later [4]: 192 ± 20 µM
Activity (5-FU permeation) [4]: 0.9

CCCCCCCSCCCCCN1CCCCCC1=O [Example 43]
Activity (serum concentration of pindolol) [1]: 16.2

CCCCCCCCCSCCCN1CCCCCC1=O [Example 31]
Activity (serum concentration of pindolol) [1]: 27.5

CCCCCCSCCCCN1CCCCCC1=O [Example 36]
Activity (serum concentration of pindolol) [1]: 19.6

CCCCCSCCCCN1CCCCCC1=O [Example 35]
Activity (serum concentration of pindolol) [1]: 8.8

Pyrrolidone carboxylic acid [Pyrolidone carbonic acid, reference compound]
Activity (pindolol permeation) [5]: 0.5
Activity (serum concentration of pindolol) [1]: 2.1

CCCCSCCCCCCCN1CCCCCC1=O [Example 49]
Activity (serum concentration of pindolol) [1]: 23.2

CCCCCCOCCCCCN1CCCCCC1=O [Example 76]
Activity (serum concentration of pindolol) [1]: 8.3

Insulin: Insulin (Bovine, International Unit); control group (only insulin used)
effects on glucose level in blood (in words) (glucose level in blood [6]; compared with the normal group): exhibited no effects on glucose level in blood
Changes of glucose level to the initial, 0.5 hr (glucose level in blood [6]; insulin suppository 0.3 g/kg rectal, 3% promoter where used, 0.5 hr): -1 mg/dL
Changes of glucose level to the initial, 1 hr (glucose level in blood [6]; insulin suppository 0.3 g/kg rectal, 3% promoter where used, 1 hr): +3 mg/dl
Changes of glucose level to the initial, 3 hrs (glucose level in blood [6]; insulin suppository 0.3 g/kg rectal, 3% promoter where used, 3 hrs): +1 mg/dl

CCCCCCCCCSCCN1CCCC1=O [Example 1, 1-[2-(n-nonylthio)ethyl] azacyclopentane-2-one]
Activity (serum concentration of pindolol) [1]: 30.0

CCCCCCCCCCSCCCN1CCCC1=O [Example 16]
Activity (serum concentration of pindolol) [1]: 32.0

CCCCCCCOCCCCCN1CCCC1=O [Example 66]
Activity (serum concentration of pindolol) [1]: 30.2

CCCCCCCSCCCN1CCCCCC1=O [Example 29]
Activity (serum concentration of pindolol) [1]: 14.8

CCCCCSCCCCCCN1CCCCCC1=O [Example 2, 1-[6-(n-pentylthio)hexyl] azacycloheptane-2-one]
Activity (serum concentration of pindolol) [1]: 12.7

CCCCCCCCCCOCCN1CCCC1=O [Example 57]
Average irritation score, 24 hours [2]: 0.0 ± 0.0
Average irritation score, 48 hours [2]: 0.3 ± 0.3
Average irritation score, 72 hours [2]: 0.3 ± 0.3
Overall evaluation (skin irritation) [2]: Mild (mild irritation (0-2 points))
LD50 at 168 h (in vivo; po): > 5000 mg/kg
LD50 at 168 h (in vivo; sc): > 5000 mg/kg
Activity (serum concentration of pindolol) [1]: 33.0
Activity (phenol red permeation) [3]: 65.5

CCCCCCCCOCCCN1CCCCCC1=O [Example 4, 1-[3-(n-octyloxy)propyl] azacycloheptane-2-one]
Activity (serum concentration of pindolol) [1]: 31.5

C[S+](C)[O-] [DMSO, dimethylsulfoxide, reference compound]
Serum concentration of pindolol ([1]; rat, in vivo, 180 min): 12.0 ± 4.2 ng/mL
Activity (serum concentration of pindolol) [1]: 1.0

CCCCCCCCCSCCCCN1CCCCCC1=O [Example 39]
Activity (serum concentration of pindolol) [1]: 18.0

CCN1CCCC1=O [1-ethyl-2-pyrolidone, 1-ethyl-2-pyrrolidone]
Cumulative amount of pindolol permeated, 24 hrs later [5]: 1.3 ± 0.1 µM
Cumulative amount of pindolol permeated, 48 hrs later [5]: 2.7 ± 0.2 µM
Activity (pindolol permeation) [5]: 0.7
Activity (serum concentration of pindolol) [1]: 2.8
Cumulative amount of 5-FU permeated, 24 hrs later [4]: 96 ± 15 µM
Cumulative amount of 5-FU permeated, 48 hrs later [4]: 178 ± 9 µM
Activity (5-FU permeation) [4]: 0.9

CCCCCCCSCCCCCN1CCCC1=O [Example 20]
Activity (serum concentration of pindolol) [1]: 40.6

COc1ccc(Cl)cc1C(=O)NCCc1ccc(S(=O)(=O)NC(=O)NC2CCCCC2)cc1 [Glibenclamide]
Glucose level (glucose level in blood [7]; glibenclamide 0.6 wt.% solution on dorsal skin, two hours after s.c. 20% glucose): 157 ± 7 mg/dL
effects on hypoglycemic activity (glucose level in blood [7]; glibenclamide used alone, compared with control group A): not exhibit any effects on hypoglycemic activity
Inhibition rate (glucose level in blood [7]; glucose level, relative to control group A and normal group): -3.6%
